Where two headings read alike, the source gives them in different places.
Columns and labels:
[1] = target: WT p97 (Homo sapiens, UniProt P55072); conditions: for fold less potent than 17: p97 IC50 ratio vs 17; for p97 inhibition (in words): biochemical ATPase assay
[2] = Metabolic stability in mouse liver microsomes; type: in vitro ADME; conditions: pH 7.4, MLM (t1/2, min)
[3] = Aqueous solubility; type: physicochemical; conditions: potassium phosphate buffer, pH 7.4, solubility (μM)
[4] = tested on: NCI-60 cell line panel; conditions: range over lines; for pGI50, CNS tumor cell lines: NCI-60 CNS tumor subpanel; for pGI50, NSCL cancer cell lines: NCI-60 NSCL cancer subpanel; for pGI50, leukemia cell lines: NCI-60 leukemia subpanel; for pGI50, melanoma cell lines: NCI-60 melanoma subpanel; for pGI50, ovarian cancer cell lines: NCI-60 ovarian cancer subpanel; for pGI50, renal cancer cell lines: NCI-60 renal cancer subpanel
[5] = tested on: NCI-60 cell line panel; assay: cells; conditions: Homo sapiens, read-out: pGI50, prostate cancer cell lines (converted)
[6] = tested on: HeLa cell line with the ubiquitin fusion degradation reporter UbG76V-GFP; assay: UbG76V-GFP accumulation assay
[7] = Metabolic stability in human liver microsomes; type: in vitro ADME; conditions: pH 7.4, HLM (t1/2, min)
[8] = Homo sapiens, HeLa, 6 h, read-out: Ub^G76 V-GFP EC50 (μM), 6 h

Sequence of WT p97 (P55072 whole entry): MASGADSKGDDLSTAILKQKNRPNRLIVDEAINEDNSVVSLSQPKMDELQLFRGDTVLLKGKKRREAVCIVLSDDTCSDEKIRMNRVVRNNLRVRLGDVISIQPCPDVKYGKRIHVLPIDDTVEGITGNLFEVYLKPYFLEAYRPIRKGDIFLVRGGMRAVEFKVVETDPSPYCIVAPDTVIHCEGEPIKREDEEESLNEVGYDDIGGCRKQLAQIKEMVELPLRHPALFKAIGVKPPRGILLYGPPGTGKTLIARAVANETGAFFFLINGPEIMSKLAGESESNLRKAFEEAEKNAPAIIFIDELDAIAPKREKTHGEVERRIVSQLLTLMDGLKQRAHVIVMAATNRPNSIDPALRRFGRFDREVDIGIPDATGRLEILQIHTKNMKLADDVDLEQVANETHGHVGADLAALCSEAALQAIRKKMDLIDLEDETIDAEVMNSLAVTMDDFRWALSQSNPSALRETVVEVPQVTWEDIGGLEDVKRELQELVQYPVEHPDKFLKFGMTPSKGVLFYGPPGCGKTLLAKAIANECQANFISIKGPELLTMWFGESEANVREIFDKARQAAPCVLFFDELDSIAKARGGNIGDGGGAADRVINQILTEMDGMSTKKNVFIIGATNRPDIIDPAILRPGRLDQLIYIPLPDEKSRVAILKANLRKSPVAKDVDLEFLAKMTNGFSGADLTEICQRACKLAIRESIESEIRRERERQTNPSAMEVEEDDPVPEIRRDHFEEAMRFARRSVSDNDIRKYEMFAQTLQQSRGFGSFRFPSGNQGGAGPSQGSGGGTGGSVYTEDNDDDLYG

c1cc(-c2cc3ccccc3[nH]2)cc(N2CCC(NCCN3CCNCC3)CC2)c1 [Compound 8]
improvement in potency compared to compound 1 ([1]; p97 IC50 ratio vs 1): ~3 fold

CC(C)N1CCN(CCCNC2CCN(c3cccc(-c4cc5ccccc5[nH]4)c3)CC2)CC1 [Compound 13]
fold less potent than 2-carbon homologue 11 ([1]; p97 IC50 ratio vs 11): ~2 fold

CN(C)CCNC1CCN(c2cccc(-c3cc4cc(F)ccc4[nH]3)c2)CC1 [Compound 15]
fold less potent than 14 ([1]; p97 IC50 ratio vs 14): > 10 fold

CC(C)N1CCC(NC2CCN(c3cccc(-c4cc5cc(F)ccc5[nH]4)c3)CC2)CC1 [Compound 17]
half-life at 10 µM [2]: > 4.5 h | solubility [3]: > 300 µM | pGI50, CNS tumor cell lines [4]: −5.7 to −5.8 | pGI50, NSCL cancer cell lines [4]: −5.7 to −6.0 | pGI50, colon cancer cell lines ([4]; NCI-60 colon cancer subpanel): 5.8 to −6.4 | pGI50, leukemia cell lines [4]: −5.7 to −6.7 | pGI50, melanoma cell lines [4]: −5.7 to −5.9 | pGI50, ovarian cancer cell lines [4]: −5.7 to −5.8 | pGI50, renal cancer cell lines [4]: −5.7 to −5.8 | GI50 [5]: 2 µM | EC50 [6, 8]: > 40 µM

CC(C)N1CCC(N[C@H]2CC[C@H](c3cccc(-c4cc5cc(F)ccc5[nH]4)c3)CC2)CC1 [Compound 18]
fold less potent than 17 [1]: 3–4 fold

CC(C)N1CCC(N[C@H]2CC[C@@H](c3cccc(-c4cc5cc(F)ccc5[nH]4)c3)CC2)CC1 [Compound 19]
fold less potent than 17 [1]: > 100 fold | fold less potent compared to the trans-isomer ([1]; p97 IC50 ratio vs 18): > 20 fold

CC(C)N1CCC2(CCN(c3cccc(-c4cc5cc(F)ccc5[nH]4)c3)CC2)CC1 [Compound 20]
p97 inhibition (in words) [1]: micromolar range

CC(C)N1CCN(C2CCN(c3cccc(-c4cc5cc(F)ccc5[nH]4)c3)CC2)CC1 [Compound 21]
p97 inhibition (in words) [1]: micromolar range

CC(C)N1CC2CN(c3cccc(-c4cc5cc(F)ccc5[nH]4)c3)CC2C1 (centres unmarked) [Compound 22]
p97 inhibition (in words) [1]: micromolar range

CN1CCN(C2(CNC3CCN(c4cccc(-c5cc6cc(F)ccc6[nH]5)c4)CC3)CCC2)CC1 [Compound 23]
half-life at 10 µM [2]: > 4.5 h | solubility [3]: > 300 µM | pGI50, CNS tumor cell lines [4]: −5.7 to −5.8 | pGI50, NSCL cancer cell lines [4]: −5.7 to −5.8 | pGI50, leukemia cell lines [4]: −5.7 to −6.7 | pGI50, melanoma cell lines [4]: −5.7 to −6.5 | pGI50, ovarian cancer cell lines [4]: −5.7 to −5.8 | pGI50, renal cancer cell lines [4]: −5.7 to −5.8 | half-life at 10 µM [7]: > 4.5 h | fold more potent than the N-iPr analog (24) ([1]; p97 IC50 ratio vs 24): 5 fold | EC50 [6, 8]: > 40 µM

Cc1cc(OCc2nnc(SC3CCCC3)n2-c2cccnc2)ccc1-c1ccc(S(C)(=O)=O)cc1 [NMS-873, reference compound]
EC50 ([6]; read-out: Ub^G76 V-GFP EC50 (μM), 1 h): 1.4 µM

From PMC6231190 (ACS Medicinal Chemistry Letters, 2018)
